# Experimental data from ChEMBL document CHEMBL1201862, “PubChem BioAssay data set” (2004).
#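 Five concentrations, 48 hours, 96-well plates. GI50: concentration for 50% inhibition of growth.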 Activity calls are given as the source filed them. No stated cut-off is given here; in the data, active = GI50 up to about 1.1 µM and inactive = higher.
# Columns and labels:
# Test in all cases: NCI-60 cell line screen, 48 h
# OVCAR-5 = system: OVCAR-5
# MDA-MB-435 = system: MDA-MB-435
# 786-0 = system: 786-0
# MDA-N = system: MDA-N
# MOLT-4 = system: MOLT-4
# SF-268 = system: SF-268
# OVCAR-8 = system: OVCAR-8
# SNB-19 = system: SNB-19
# EKVX = system: EKVX
# UACC-62 = system: UACC-62
# K562 = system: K562
# SNB-75 = system: SNB-75
# SN12C = system: SN12C
# IGROV-1 = system: IGROV-1
# NCI-H460 = system: NCI-H460
# PC-3 = system: PC-3
# U-251 = system: U-251
# T47D = system: T47D
# SK-OV-3 = system: SK-OV-3
# HOP-62 = system: HOP-62
# SK-MEL-2 = system: SK-MEL-2
# SF-295 = system: SF-295
# BT-549 = system: BT-549
# OVCAR-4 = system: OVCAR-4
# LOX IMVI = system: LOX IMVI
# Malme-3M = system: Malme-3M
# CCRF-CEM = system: CCRF-CEM
# OVCAR-3 = system: OVCAR-3
# Hs-578T = system: Hs-578T
# TK-10 = system: TK-10
# HCC 2998 = system: HCC 2998
# SK-MEL-28 = system: SK-MEL-28
# SW-620 = system: SW-620
# NCI-H522 = system: NCI-H522
# A549 = system: A549
# UACC-257 = system: UACC-257
# CAKI-1 = system: CAKI-1
# MCF7 = system: MCF7
# HCT-116 = system: HCT-116
# NCI/ADR-RES = system: NCI/ADR-RES
# COLO 205 = system: COLO 205
# SR = system: SR
# M14 = system: M14
# NCI-H226 = system: NCI-H226
# A498 = system: A498
# ACHN = system: ACHN
# HT-29 = system: HT-29
# SK-MEL-5 = system: SK-MEL-5
# DU-145 = system: DU-145
# HCT-15 = system: HCT-15
# MDA-MB-231 = system: MDA-MB-231
# RPMI-8226 = system: RPMI-8226
# KM12 = system: KM12
# UO-31 = system: UO-31
# RXF 393 = system: RXF 393
# NCI-H23 = system: NCI-H23
# SF-539 = system: SF-539
# HL-60 = system: HL-60
structure (smiles),measurement,setting,value
O=C1c2sc(-c3ccc(F)cc3)cc2-n2cccc21,GI50,OVCAR-5,> 100 µM (inactive)
same,GI50,MDA-MB-435,31.4 µM (inactive)
same,GI50,786-0,16.9 µM (inactive)
same,GI50,MDA-N,25.8 µM (inactive)
same,GI50,MOLT-4,21.4 µM (inactive)
same,GI50,SF-268,19.9 µM (inactive)
same,GI50,OVCAR-8,27.6 µM (inactive)
same,GI50,SNB-19,16.7 µM (inactive)
same,GI50,EKVX,1.89 µM (inactive)
same,GI50,UACC-62,28.3 µM (inactive)
same,GI50,K562,10.2 µM (inactive)
same,GI50,SNB-75,18.4 µM (inactive)
same,GI50,SN12C,19.4 µM (inactive)
same,GI50,IGROV-1,8.39 µM (inactive)
same,GI50,NCI-H460,24.9 µM (inactive)
same,GI50,PC-3,37.2 µM (inactive)
same,GI50,U-251,16.4 µM (inactive)
same,GI50,T47D,12.8 µM (inactive)
same,GI50,SK-OV-3,28.2 µM (inactive)
same,GI50,HOP-62,17 µM (inactive)
same,GI50,SK-MEL-2,> 100 µM (inactive)
same,GI50,SF-295,25.1 µM (inactive)
same,GI50,BT-549,34 µM (inactive)
same,GI50,OVCAR-4,28.1 µM (inactive)
same,GI50,LOX IMVI,32.1 µM (inactive)
same,GI50,Malme-3M,77.3 µM (inactive)
same,GI50,CCRF-CEM,28.5 µM (inactive)
same,GI50,OVCAR-3,32.8 µM (inactive)
same,GI50,Hs-578T,19.7 µM (inactive)
same,GI50,TK-10,21.9 µM (inactive)
same,GI50,HCC 2998,29.2 µM (inactive)
same,GI50,SK-MEL-28,69.8 µM (inactive)
same,GI50,SW-620,47.6 µM (inactive)
same,GI50,NCI-H522,34.8 µM (inactive)
same,GI50,A549,26 µM (inactive)
same,GI50,UACC-257,47.5 µM (inactive)
same,GI50,CAKI-1,17.1 µM (inactive)
same,GI50,MCF7,24.5 µM (inactive)
same,GI50,HCT-116,18.4 µM (inactive)
same,GI50,NCI/ADR-RES,31.2 µM (inactive)
same,GI50,COLO 205,48 µM (inactive)
same,GI50,SR,17.8 µM (inactive)
same,GI50,M14,38.1 µM (inactive)
same,GI50,NCI-H226,24.4 µM (inactive)
same,GI50,A498,23.3 µM (inactive)
same,GI50,ACHN,29.9 µM (inactive)
same,GI50,HT-29,25.2 µM (inactive)
same,GI50,SK-MEL-5,38.5 µM (inactive)
same,GI50,DU-145,24.6 µM (inactive)
same,GI50,HCT-15,51.3 µM
same,GI50,MDA-MB-231,22.2 µM (inactive)
same,GI50,RPMI-8226,23.3 µM (inactive)
same,GI50,KM12,26.4 µM (inactive)
same,GI50,UO-31,22.5 µM (inactive)
same,GI50,RXF 393,23.5 µM (inactive)
COC1=C(Br)[C@H](O)[C@@]2(C=C1Br)CC(C(=O)NCCCOc1c(Br)cc(C(O)CNC(C)=O)cc1Br)=NO2 (some centres undefined) [APLYSINAMISINE III],GI50,OVCAR-5,> 10 µM (inactive)
same,GI50,MDA-MB-435,2.18 µM (inactive)
same,GI50,786-0,> 10 µM (inactive)
same,GI50,MDA-N,2.11 µM (inactive)
same,GI50,MOLT-4,7.73 µM (inactive)
same,GI50,SF-268,> 10 µM (inactive)
same,GI50,OVCAR-8,> 10 µM (inactive)
same,GI50,SNB-19,> 10 µM (inactive)
same,GI50,UACC-62,> 10 µM (inactive)
same,GI50,K562,2.24 µM (inactive)
same,GI50,SNB-75,2.79 µM (inactive)
same,GI50,SN12C,> 10 µM (inactive)
same,GI50,IGROV-1,> 10 µM (inactive)
same,GI50,NCI-H460,> 10 µM (inactive)
same,GI50,PC-3,> 10 µM (inactive)
same,GI50,NCI-H23,> 10 µM (inactive)
same,GI50,U-251,> 10 µM (inactive)
same,GI50,SF-539,> 10 µM (inactive)
same,GI50,T47D,> 10 µM (inactive)
same,GI50,SK-OV-3,> 10 µM (inactive)
same,GI50,HOP-62,> 10 µM (inactive)
same,GI50,SK-MEL-2,8.79 µM (inactive)
same,GI50,SF-295,> 10 µM (inactive)
same,GI50,BT-549,2.79 µM (inactive)
same,GI50,OVCAR-4,> 10 µM (inactive)
same,GI50,LOX IMVI,> 10 µM (inactive)
same,GI50,Malme-3M,6.03 µM (inactive)
same,GI50,CCRF-CEM,> 10 µM (inactive)
same,GI50,OVCAR-3,> 10 µM (inactive)
same,GI50,Hs-578T,> 10 µM (inactive)
same,GI50,TK-10,> 10 µM (inactive)
same,GI50,HCC 2998,> 10 µM (inactive)
same,GI50,SK-MEL-28,> 10 µM (inactive)
same,GI50,SW-620,> 10 µM (inactive)
same,GI50,NCI-H522,4.17 µM (inactive)
same,GI50,A549,> 10 µM (inactive)
same,GI50,UACC-257,> 10 µM (inactive)
same,GI50,CAKI-1,> 10 µM (inactive)
same,GI50,MCF7,6.18 µM (inactive)
same,GI50,HCT-116,> 10 µM (inactive)
same,GI50,NCI/ADR-RES,> 10 µM (inactive)
same,GI50,COLO 205,> 10 µM (inactive)
same,GI50,SR,0.00518 µM (active)
same,GI50,M14,8.73 µM (inactive)
same,GI50,HL-60,2.19 µM (inactive)
same,GI50,NCI-H226,> 10 µM (inactive)
same,GI50,A498,> 10 µM (inactive)
same,GI50,ACHN,> 10 µM (inactive)
same,GI50,HT-29,> 10 µM (inactive)
same,GI50,SK-MEL-5,4.86 µM (inactive)
same,GI50,DU-145,> 10 µM (inactive)
same,GI50,HCT-15,> 10 µM
same,GI50,MDA-MB-231,> 10 µM (inactive)
same,GI50,RPMI-8226,> 10 µM (inactive)
same,GI50,KM12,> 10 µM (inactive)
same,GI50,UO-31,> 10 µM (inactive)
same,GI50,RXF 393,> 10 µM (inactive)
CCOC(=O)C(Cc1cn(S(=O)(=O)c2ccc(C)cc2)cn1)P(=O)(OCC)OCC (centres undefined),GI50,OVCAR-5,> 100 µM (inactive)
same,GI50,MDA-MB-435,> 100 µM (inactive)
same,GI50,786-0,> 100 µM (inactive)
same,GI50,MDA-N,> 100 µM (inactive)
same,GI50,MOLT-4,> 100 µM (inactive)
same,GI50,SF-268,> 100 µM (inactive)
same,GI50,OVCAR-8,> 100 µM (inactive)
same,GI50,SNB-19,> 100 µM (inactive)
same,GI50,EKVX,> 100 µM (inactive)
same,GI50,UACC-62,> 100 µM (inactive)
same,GI50,K562,> 100 µM (inactive)
same,GI50,SNB-75,> 100 µM (inactive)
same,GI50,SN12C,> 100 µM (inactive)
same,GI50,IGROV-1,> 100 µM (inactive)
same,GI50,NCI-H460,> 100 µM (inactive)
same,GI50,PC-3,> 100 µM (inactive)
same,GI50,NCI-H23,> 100 µM (inactive)
same,GI50,U-251,> 100 µM (inactive)
same,GI50,SF-539,> 100 µM (inactive)
same,GI50,T47D,> 100 µM (inactive)
same,GI50,SK-OV-3,> 100 µM (inactive)
same,GI50,HOP-62,> 100 µM (inactive)
same,GI50,SK-MEL-2,> 100 µM (inactive)
same,GI50,SF-295,> 100 µM (inactive)
same,GI50,BT-549,> 100 µM (inactive)
same,GI50,OVCAR-4,> 100 µM (inactive)
same,GI50,LOX IMVI,> 100 µM (inactive)
same,GI50,Malme-3M,> 100 µM (inactive)
same,GI50,CCRF-CEM,> 100 µM (inactive)
same,GI50,OVCAR-3,> 100 µM (inactive)
same,GI50,Hs-578T,> 100 µM (inactive)
same,GI50,TK-10,> 100 µM (inactive)
same,GI50,HCC 2998,> 100 µM (inactive)
same,GI50,SK-MEL-28,> 100 µM (inactive)
same,GI50,SW-620,> 100 µM (inactive)
same,GI50,NCI-H522,> 100 µM (inactive)
same,GI50,A549,> 100 µM (inactive)
same,GI50,UACC-257,> 100 µM (inactive)
same,GI50,CAKI-1,> 100 µM (inactive)
same,GI50,MCF7,> 100 µM (inactive)
same,GI50,HCT-116,> 100 µM (inactive)
same,GI50,NCI/ADR-RES,> 100 µM (inactive)
same,GI50,COLO 205,> 100 µM (inactive)
same,GI50,SR,> 100 µM (inactive)
same,GI50,M14,> 100 µM (inactive)
same,GI50,HL-60,> 100 µM (inactive)
same,GI50,NCI-H226,> 100 µM (inactive)
same,GI50,ACHN,> 100 µM (inactive)
same,GI50,HT-29,> 100 µM (inactive)
same,GI50,SK-MEL-5,> 100 µM (inactive)
same,GI50,DU-145,> 100 µM (inactive)
same,GI50,HCT-15,> 100 µM
same,GI50,MDA-MB-231,> 100 µM (inactive)
same,GI50,RPMI-8226,> 100 µM (inactive)
same,GI50,KM12,> 100 µM (inactive)
same,GI50,UO-31,> 100 µM (inactive)
same,GI50,RXF 393,> 100 µM (inactive)
